In patent publication US20150230474A1, “Use of Glyphosate to Control Clubroot Disease” (priority 2014, published 2015):
“Also recorded” adds a separate entry of the source.

Key:
[1] = test system: VT500G canola plants; assay: Growth impediment of canola seedlings after pre-seeding glyphosate treatment of potting mix; assay type: in vivo, Brassica napus
Procedure: (§1) Canola plants, cultivar Westar and the Roundup®-resistant transgenic line VT500G of Brassica napus, were used. Plants were grown in a phytotron at 22° C. with a light/dark photoperiod of 16 h/8 h (light intensity 120 μmol m^−2 s^−1).
(§2) Potting mix consisting of fine peat moss, vermiculite, gypsum, dolomitic limestone and starter nutrient (Sunshine Mix #3; pH 5.8-6.2; Sun Gro Horticulture Canada Ltd., Canada) in 13 cm diameter plastic pots was inoculated with P. brassicae spores. The P. brassicae infested potting soil was then irrigated with 350 ml of water or glyphosate (Roundup®, Monsanto Canada Inc.) solution to provide an application rate of 0 mg, 143, 286, or 572 mg of glyphosate per 13 cm pot containing 750 cm3 of potting mix. VT500G canola seeds were subsequently sown on the treated potting mix and allowed to grow at 22° C. with a light/dark photoperiod of 16 h/8 h for 65 days. Plant growth and clubroot symptom development were monitored over the incubation time course.

[2] = test system: Plasmodiophora brassicae; assay: Pre-seeding treatment of P. brassicae infested potting mix, VT500G canola then sown; assay type: in vivo; conditions: for plant growth / foliar symptoms of clubroot disease: 35 days post seeding; for early senescence: 60 days post seeding
Procedure: (§3) An isolate of clubroot pathogen Plasmodiophora brassicae was obtained from infested canola fields in central Alberta. The pathogen population from this collection may represent a mixture of pathotypes, but pathotype 3 is expected to be predominant (Peng et al., 2011). The inoculum was propagated using a susceptible canola cv. Westar grown in the infested soil with spores. Fresh clubroot galls were harvested, air dried, and stored at 4° C., and were further used for fresh inoculum preparation. To extract spores, 2-5 g of air-dried galls were soaked in distilled water for a few hours to soften the tissues and then ground in a mortar with pestle. The resulting slurry was filtered through three layers of cheesecloth and the spore concentration was estimated under a microscope. Inoculum concentration of 1.0·10^7 resting spores/ml was used for inoculation.
as §1, §2

[3] = test system: Plasmodiophora brassicae; assay: Treatment of canola seedlings: potting mix irrigated with glyphosate solution, then inoculated with P. brassicae spores; assay type: in vivo; conditions: 572 mg/pot glyphosate, 15 days post-inoculation, VT500G canola
Procedure: as §3
Canola plants, cultivar Westar and the glyphosate-resistant transgenic line VT500G of Brassica napus, were used. Plants were grown in a phytotron at 22° C. with a light/dark photoperiod of 16 h/8 h (light intensity 120 μmol m^−2 s^−1). […]

## O=C(O)CNCP(=O)(O)O [glyphosate, N-(phosphonomethyl)glycine]
[1]; 572 mg/pot, 12 days post seeding
  chlorosis of leaves: light chlorosis on true leaves
[1]; 572 mg/pot, 22 days post seeding
  growth retardation: slightly retarded growth
[1]; glyphosate-treated seedlings, early stages
  growth impediment of seedlings: Some growth retardation; also recorded: some growth impediment
[2]; 143 mg/pot
  plant growth / foliar symptoms of clubroot disease: normal growth
  early senescence: appeared less affected, albeit with some signs of early senescence; also recorded: showed an early senescence
[2]; 143 mg/pot, 65 days post seeding
  silique/seed production: Abortions of silique development were frequently observed
[2]; 286 mg/pot
  plant growth / foliar symptoms of clubroot disease: normal growth
  early senescence: did not display early senescence
[2]; 286 mg/pot, 65 days post seeding
  silique/seed production: normal silique/seed production
[2]; 572 mg/pot
  plant growth / foliar symptoms of clubroot disease: normal growth
  early senescence: did not display early senescence
[2]; 572 mg/pot, 65 days post seeding
  silique/seed production: normal silique/seed production
[2]; all glyphosate treatments (143, 286, 572 mg/pot), 65 days post seeding
  plant survival: all glyphosate treated plants had survived
[2]; drench application of glyphosate pesticide solution to inoculated potting mix, glyphosate-resistant canola
  incidence of clubroot disease: reduced the incidence of clubroot disease
[3]
  clubroot development in the root system: prevented visible clubroot development
